Laboratory results published in patent US4687864A, “5-fluoro-3-oxa-prostacyclin compounds” (G. D. Searle & Co., priority 1985, dated 1987).

Assays:
[1] = system: ADP-Induced platelet aggregation; assay: Inhibition of ADP-induced platelet aggregation, in vitro (platelet rich plasma); assay type: cell-based; details: Rattus norvegicus, compound preincubated 1 minute, read-out: Results (IC50 (Molar))
Procedure: Inhibition of ADP-Induced platelet aggregation, in vitro.
Aggregation was determined using a Payton Dual Channel Aggregation Module. A Riker-Denshi recorder was used fo recording the aggregation curves.
The addition of ADP to platelet-rich plasma induces platelet aggregation.
After the PRP fraction was removed, the remainder was spun at 900×g for 15 mins. to obtain platelet poor plasma (PPP) (1800 RPM in IEC PR 6000). The number of platelets per ml PRP is determined by counting a 50 μl aliquot of PRP in a Coutter ZBI counter and channelyzer Model C-1000.
PRP is diluted with PPP 1:2 to obtain a count of approx. 25000 on the screen or 10^9 platelets/ml PRP to evaluate the anti-aggregating agent. The module was standardized with an aliquot of PPP and that of diluted PRP.
The aggregating agent used is ADP prepared as follows:
Prostacyclin is used as the standard of antiaggregatory activity for determining the potency of compounds tested. A 10^2 M solution (to give a starting concentration of 10^-4 M when 4 μL is added to 400 μL PRP) is diluted serially to obtain solutions with final concentrations of 10^-6, 10^-7, 10^-8, 10^-9 M.
Determine the dose of ADP which on a standard curve would be on the linear portion and allow reversal of the aggregation curve.
Determine the PGI2 standard curve of percentage inhibition of aggregation. Use saline in control cuvette to compare the extent of inhibition by PGI2 are represented by the depth of the aggregation curve. Allow the PRP to preincubate for approximately one minute prior to the addition of prostacyclin and another minute with PGI2 prior to the addition of ADP.
The % inhibition is plotted against prostacyclin dose on semilog paper.
The test compound is added to PRP and preincubated for 1 minute prior to ADP administration.

[2] = system: ulcerogenic effect induced by certain non-steriodal and steroidal anti-inflammatory agents; details: rats, concomitant oral administration; cited from earlier work
[3] = physiological pH; cited from earlier work
platelet aggregation = details: background, cited from earlier work

| Compound | IC50 [1] [nM] | ulcerogenic effect induced by anti-inflammatory agents [2] | also measured |
| --- | --- | --- | --- |
| CCCCC[C@H](O)/C=C/[C@@H]1[C@H]2C=C(C(F)COCC(=O)OC(C)(C)C)O[C@H]2C[C@H]1O (relative stereo) [1,1-Dimethylethyl(3aS,3aα,6aα)[2-fluoro-2-[4,5,6,6aα-tetrahyro-5β-hydroxy-4α-(3S*-hydroxy-1E-octenyl)-3aS,3aαH,-cyclopenta[b]furanyl]ethoxy]acetate] | 4000 |  |  |
| CCCCC[C@H](O)/C=C/[C@H]1[C@H](O)CC(=O)[C@@H]1CCCCCCC(=O)O [PGE1] |  | inhibited |  |
| CCCCC[C@H](O)CC[C@H]1[C@H](O)CC(=O)[C@@H]1CCCCCCC(=O)O [13, 14-dihydro-PGE1] |  | inhibited |  |
| CC/C=C\C[C@H](O)/C=C/[C@H]1[C@H](O)CC(=O)[C@@H]1C/C=C\CCCC(=O)O [PGE3] |  | inhibited |  |
| CCCCC[C@H](O)/C=C/[C@@H]1[C@H]2C/C(=C/CCCC(=O)O)O[C@H]2C[C@H]1O [Prostacyclin, (5Z)-9-deoxy-6,9α-epoxy-Δ^5 -PGF1] | 6 |  | half period of its activity [3]: only about several minutes; duration of antiplatelet aggregation effect (platelet aggregation): short lived; hypotensive effects (platelet aggregation): often affords unwanted hypotensive effects; doses required for platelet aggregation inhibiting action and antihypertensive action (platelet aggregation; selectivity of action): almost equal to each other |
| CCCCC[C@H](O)/C=C/[C@H]1[C@H](O)CC(=O)[C@@H]1C/C=C\CCCC(=O)O [PGE2] |  | inhibited |  |
| CCCCC[C@H](O)/C=C/[C@@H]1[C@H]2C/C(=C/COCC(=O)OC(C)(C)C)O[C@H]2C[C@H]1O (relative stereo) [3-oxa prostacyclin Tert-butyl ester, 1,1-Dimethylethyl(3aS,3aα,6aα)[2-[hexahydro-5β-hydroxy-4α-(3S*-hydroxy-1E-octenyl)-2H-cyclopenta-[b]furan-2Z-ylidene]ethoxy]acetate] | 1000 |  |  |
